# Entries after “also recorded” stand apart in the source; their conditions may differ.
# Experiments:
# [1] = In vitro stability of Tc-99m complexes (radiochemical purity by thin layer chromatography); type: physicochemical; conditions: for remaining at 2 min: 2 min post formation; for remaining at 2 min / remaining at 1 h / remaining at 2 h: dl/meso mixture, read-out: % of the desired Tc-99m complex; for remaining at 1 h: 60 min post formation; for remaining at 2 h: 120 min post formation; for in vitro stability of the Tc-99m complex: in words, complex of compound 1 versus compound 2
# Experimental: Glass fibre strips impregnated with silica gel form the stationary phase of a fast and accurate analytical system. Two strips, each measuring 20 cm×2 cm were used in each analysis. Approximately five microliters of the solution containing the complex was applied 1 cm from the base of each strip, and one strip developed with saline, the other with methylethylketone (MEK).
# Determination of the distribution of radioactivity along each strip was conducted by means of a 100 channel analysis system interfaced to a Nova computer, programmed for peak integration. The Table below indicates the RF values of the major components of the Tc-99m solutions. The observed radiochemical purity of the Tc-99m complexes was generally greater than 80%.
# Radiochemical purity determinations by thin layer chromatography were carried out at several time points following formation of the technetium complexes of compounds 1 and 2 (a dl/meso mixture in each case) to determine the stability of the complexes.
# [2] = Animal biodistribution of Tc-99m complexes of ligands, no separation of stereoisomers (Example 22); type: in vivo, rats; conditions: for % id/organ, Blood / % id/organ, Brain / % id/organ, Heart / % id/organ, Liver: i.v. rats, mean of 3 animals
# Experimental: The ratio of diastereoisomers in the Tc-99m complexes used in this experiment is not known.
# The results at 2 minutes and 1 hour p.i. are the mean of 3 animals.
# The results at 2 hours p.i. are the mean of 2 animals.
# [3] = Clinical comparison of dl and meso diastereoisomers of Compound 1, whole body scanning (Example 25a); type: in vivo, normal volunteer subjects (human); conditions: 20 minutes p.i.; mean; human
# Experimental: All clinical studies, involving comparisons between the Tc-99m complexes of dl and meso, and d,l and dl stereoisomers of Compound 1 were conducted in normal volunteer subjects at Aberdeen Royal Infirmary.
# (a) Comparison of dl and meso diastereoisomers of Compound 1
# Data is then taken from area of interest studies employing a whole body scanning device.
# [4] = Blood clearance in human volunteers; type: in vivo, human volunteer subjects; conditions: for % id in blood: unseparated dl/meso mixture, human
# Source text: (§1) The following data allows comparison of the relative performance of the complexes of compounds 1 and 2 (an unseparated dl/meso mixture in each case) in human volunteer subjects.
# [5] = Whole body distribution in human volunteers; type: in vivo, human volunteer subjects; conditions: unseparated dl/meso mixture; for Whole body distribution, Bladder / Whole body distribution, Brain / Whole body distribution, Liver: 2 hrs p.i., human
# Source text: as §1
# (ii) Whole body distribution
# [6] = Tomographic imaging of the brain in man; type: in vivo, normal volunteers (human); conditions: in words; unseparated dl/meso mixture; human
# Experimental: Tomographic images of the brain were determined using the same complexes in normal volunteers. The device used was a single head rotating gamma camera and minicomputer system. 64 25-second images were accumulated by the gamma camera during 360° circular rotation of the head and shoulders of the volunteer.
# leucocytes = experiment: In vitro labelling of leucocytes; type: cell-based; conditions: ambient temperature
# Experimental: A solution of the technetium-99m complex of compound 1 was made as follows. A vial contained 0.5 mg compound 1; […] stannous chloride dihydrate; and 4.5 mg sodium chloride; freeze-dried and sealed under nitrogen. To this was added 5.0 ml of sodium pertechnetate eluate from a 135mCi technetium generator.
# Mixed leucocytes were obtained from 34 ml of acid citrate anticoagulated blood by dextran sedimentation. These were washed twice and resuspended in 2.0 ml phosphate buffered saline containing approximately 0.25 mg/ml prostaglandin El. The suspension was incubated with 0.2 ml of the solution of the technetium-99m complex of compound 1. Incubation was at ambient temperature, and samples were removed at intervals for analysis. After two minutes, 60% of the radioactivity was associated with blood cells; after 5 minutes, 83% and after 10 minutes, 89%.
# [7] = Rat biodistribution of Tc-99m complexes from isolated stereoisomers (Example 24); conditions: d- versus l-enantiomer; rats
# Experimental: 0.1 ml of the Tc-99m complex solution was administered by intravenous injection (lateral tail vein) to each of five or six rats (140-220 g). The injected dose was equivalent to approximately 1 mCi of Tc-99m. Three rats were sacrificed at 2 minutes post injection, and 3 at 1 hour or 2 at 2 hours post injection. At dissection, the organs and blood samples shown in the following table were taken, and assayed for radioactivity. The uptake in each organ or tissue was calculated as a percentage of the total activity recovered.
# Data in Tables (a) and (b) are the mean from 3 animals at each time point.
remaining at 2 min [1] [%],remaining at 1 h [1] [%],remaining at 2 h [1] [%],"% id/organ, Blood ([2]; 2 min pi) [% id/organ]","% id/organ, Brain ([2]; 2 min pi) [% id/organ]","% id/organ, Heart ([2]; 2 min pi) [% id/organ]","% id/organ, Liver ([2]; 2 min pi) [% id/organ]","% id/organ, Blood ([2]; 1 hr pi) [% id/organ]","% id/organ, Brain ([2]; 1 hr pi) [% id/organ]","% id/organ, Heart ([2]; 1 hr pi) [% id/organ]","% id/organ, Liver ([2]; 1 hr pi) [% id/organ]",% id in blood ([4]; 14 minutes post injection) [% id],% id in blood ([4]; 40 minutes post injection) [% id],% id in blood ([4]; 60 minutes post injection) [% id],% id in blood ([4]; 250 minutes post injection) [% id],"Whole body distribution, Bladder [5]","Whole body distribution, Brain [5]","Whole body distribution, Liver [5]",Compound,in vitro stability of the Tc-99m complex [1],quality of tomographic images of the brain [6],also measured
92,87,79,16.7,1.5,0.4,8.4,19.6,1.2,0.2,5.4,9.54,7.73,6.38,5.26,3.9,3.70,23.35,"CC(=NO)C(C)NCC(C)(C)CNC(C)C(C)=NO (racemic) [Compound 1, 4,8-diaza-3,6,6,9-tetramethylundecane-2,10-dione bis oxime]",only slow in vitro degradation,Good quality tomographic images of the brain,"uptake in the brain of rats ([2]; in words, unseparated dl/meso mixture): Good uptake in the brain; % injected activity, Bladder + Urine [3]: 1.4 % injected activity; % injected activity, Brain [3]: 1.95 % injected activity; % injected activity, Kidneys [3]: 1.95 % injected activity; % injected activity, Liver [3]: 13.0 % injected activity; removal of radioactivity from brain in humans ([5]; in words): Slow removal of radioactivity from brain; uptake in the brain of humans ([5]; in words): Good uptake in the brain; radioactivity associated with blood cells (leucocytes; after 5 minutes): 83%; radioactivity associated with blood cells (leucocytes; after 10 minutes): 89%; radioactivity associated with blood cells (leucocytes; after two minutes): 60%; difference in brain uptake of the d- and l-enantiomers (factor) [7]: 1.6"
82,60,47,14.6,1.6,0.5,10.9,12.4,1.4,0.5,4.9,11.06,6.9,5.93,3.98,21.02,3.48,13.21,"CC(=NO)C(C)NCCCNC(C)C(C)=NO (racemic) [Compound 2, 4,8-Diaza-3,9-dimethylundecane-2,10-dione bis oxime]",greatly inferior to that of the complex of compound 1; also recorded: Far better in vitro stability; also recorded: rapid in vitro degradation,"less good, due to a higher level of background radiation","percent of the Tc-99m not in the form of the complex, Compound 2 relative to Compound 1 ([1]; at all times): more than twice as great; blood and tissue background clearance of activity in humans ([4]; in words, compound 1 versus complex of compound 2): Better blood and tissue background clearance"

# Reference: patent US4789736A, “Complexes of technetium-99m with propylene amine oximes” (Amersham International plc, priority 1985, dated 1988)
